Source: ChEMBL document CHEMBL1821626, “Novel 2-thioxothiazolidin-4-one inhibitors of bacterial MurD ligase targeting D-Glu- and diphosphate-binding sites” (Eur J Med Chem, 2011)

experiment: Inhibition of Escherichia coli MurD ligase assessed as residual activity at 250 uM after 15 mins by colorimetric malachite green assay

Activity	Structure (SMILES)
97%	O=C(O)CC[C@@H](NC(=O)c1cccc(/C=C2\SC(=O)NC2=O)c1)C(=O)O
96%	O=C(O)CC[C@H](NC(=O)c1cccc(/C=C2\SC(=O)NC2=O)c1)C(=O)O

The next lines start with the compound.

Structure (SMILES)	Activity
O=C(O)CC[C@H](NC(=O)c1ccc(/C=C2\SC(=O)NC2=O)cc1)C(=O)O	93%
O=C(O)CC[C@@H](NC(=O)c1ccc(/C=C2\SC(=O)NC2=O)cc1)C(=O)O	96%

experiment: Inhibition of Escherichia coli MurD ligase assessed as residual activity at 500 uM after 15 mins by colorimetric malachite green assay

Activity	Structure (SMILES)
91%	COC(=O)CC[C@@H](NC(=O)c1cccc(CC2SC(=S)NC2=O)c1)C(=O)OC (stereo partly specified)
96%	O=C(O)CC[C@@H](NC(=O)c1ccc(CC2SC(=S)NC2=O)cc1)C(=O)O (stereo partly specified)
91%	O=C(O)CC[C@@H](NC(=O)c1cccc(CC2SC(=S)NC2=O)c1)C(=O)O (stereo partly specified)

Second part, the compound before the results:

Structure (SMILES)	Activity
O=C(O)CC[C@@H](NC(=O)c1cc(/C=C2\SC(=S)NC2=O)ccc1F)C(=O)O	67%
CN1C(=O)/C(=C/c2ccc(C(=O)N[C@H](CCC(=O)O)C(=O)O)cc2)SC1=S	85%
O=C(O)CC[C@@H](NC(=O)c1ccc(/C=C2\NC(=O)NC2=O)cc1)C(=O)O	97%
N=C1NC(=O)/C(=C/c2ccc(C(=O)N[C@H](CCC(=O)O)C(=O)O)cc2)S1	95%
O=C(O)CC[C@@H](NC(=O)c1ccc(/C=C2\SC(=S)N(CC(=O)O)C2=O)cc1)C(=O)O	96%

experiment: Inhibition of Escherichia coli MurD ligase after 15 mins by colorimetric malachite green assay

Structure (SMILES)	IC50
O=C(O)CC[C@@H](NC(=O)c1cccc(/C=C2\SC(=S)NC2=O)c1)C(=O)O	89 µM
O=C(O)CC[C@H](NC(=O)c1ccc(/C=C2\SC(=S)NC2=O)cc1)C(=O)O	10 µM
O=C(O)CC[C@H](NC(=O)c1cccc(/C=C2\SC(=S)NC2=O)c1)C(=O)O	172 µM
O=C(O)CC[C@@H](NC(=O)c1ccc(/C=C2\SC(=S)NC2=O)cc1)C(=O)O	45 µM
